These results are taken from ChEMBL document CHEMBL4387741, “Optimization of novel reversible Bruton's tyrosine kinase inhibitors identified using Tethering-fragment-based screens” (Bioorg Med Chem, 2019).

The target of data set [1] is Protein kinase C eta type (Homo sapiens) (UniProt P24723). Briefly: Inhibition of wild-type human partial length PRKCH (S324 to P683 residues) expressed in bacterial expression system at 10 uM by Kinomescan method relative to control.
Data set [2] addresses Cyclin-dependent kinase-like 1 (Homo sapiens) (UniProt Q00532). Put plainly: Inhibition of wild-type human full length CDKL1 (M1 to I358 residues) expressed in mammalian expression system at 10 uM by Kinomescan method relative to control.
Data set [3] has as its target Serine/threonine-protein kinase/endoribonuclease IRE1 (Homo sapiens) (UniProt O75460). Briefly: Inhibition of wild-type human partial length ERN1 (S551 to E852 residues) expressed in mammalian expression system at 10 uM by Kinomescan method relative to control.
Data set [4] deals with Interferon-induced, double-stranded RNA-activated protein kinase (Homo sapiens) (UniProt P19525). Put plainly: Inhibition of wild-type human partial length PRKR (F247 to C551 residues) expressed in bacterial expression system at 10 uM by Kinomescan method relative to control.
Data set [5] has as its target Serine/threonine-protein kinase 32C (Homo sapiens) (UniProt Q86UX6). Briefly: Inhibition of wild-type human partial length YANK3 (M68 to G486 residues) expressed in bacterial expression system at 10 uM by Kinomescan method relative to control.
Data set [6] deals with Myosin light chain kinase family member 4 (Homo sapiens) (UniProt Q86YV6). Put plainly: Inhibition of wild-type human partial length MYLK4 (V79 to S380 residues) expressed in bacterial expression system at 10 uM by Kinomescan method relative to control.
For data set [7], the target named is Calcium/calmodulin-dependent protein kinase type II subunit delta (Homo sapiens) (UniProt Q13557). Put plainly: Inhibition of wild-type human partial length CAMK2D (M1 to E329 residues) expressed in bacterial expression system at 10 uM by Kinomescan method relative to control.
Data set [8] deals with Death-associated protein kinase 3 (Homo sapiens) (UniProt O43293). Put plainly: Inhibition of wild-type human partial length DAPK3 (M1 to A277 residues) expressed in bacterial expression system at 10 uM by Kinomescan method relative to control.
Data set [9] has as its target Serine/threonine-protein kinase PAK 1 (Homo sapiens) (UniProt Q13153). Put plainly: Inhibition of wild-type human partial length PAK1 (S149 to H545 residues) expressed in bacterial expression system at 10 uM by Kinomescan method relative to control.
In data set [10] the target is Mitogen-activated protein kinase kinase kinase 15 (Homo sapiens) (UniProt Q6ZN16). Put plainly: Inhibition of wild-type human partial length MAP3K15 (T625 to L932 residues) expressed in mammalian expression system at 10 uM by Kinomescan method relative to control.
The subject of data set [11] is Receptor-type tyrosine-protein kinase FLT3 (Homo sapiens), P36888 [UNDEFINED MUTATION]. Put plainly: Inhibition of human partial length FLT3 ITD/D835V double mutant expressed in bacterial expression system at 1 uM by Kinomescan method relative to control.
Data set [12] has as its target Myotonin-protein kinase (Homo sapiens) (UniProt Q09013). Put plainly: Inhibition of wild-type human partial length DMPK (V47 to V415 residues) expressed in bacterial expression system at 1 uM by Kinomescan method relative to control.
Data set [13] concerns Phosphatidylinositol 4,5-bisphosphate 3-kinase catalytic subunit alpha isoform (Homo sapiens), P42336 [E542K]. Put plainly: Inhibition of human partial length PIK3CA E542K mutant (R108 to N1068 residues) expressed in mammalian expression system at 1 uM by Kinomescan method relative to control.
For data set [14], the target named is Serine/threonine-protein kinase RIO3 (Homo sapiens) (UniProt O14730). Briefly: Inhibition of wild-type human full length RIOK3 (M1 to E519 residues) expressed in bacterial expression system at 1 uM by Kinomescan method relative to control.
Data set [15] concerns the target Tyrosine-protein kinase receptor TYRO3 (Homo sapiens) (UniProt Q06418). Briefly: Inhibition of wild-type human partial length TYRO3 (S497 to T814 residues) expressed in bacterial expression system at 1 uM by Kinomescan method relative to control.
In data set [16] the target is Calcium/calmodulin-dependent protein kinase type 1 (Homo sapiens) (UniProt Q14012). Briefly: Inhibition of wild-type human full length CAMK1 (M1 to L370 residues) expressed in bacterial expression system at 1 uM by Kinomescan method relative to control.
For data set [17], the target named is Rhodopsin kinase GRK7 (Homo sapiens) (UniProt Q8WTQ7). Put plainly: Inhibition of wild-type human full length GRK7 (M1 to L553 residues) expressed in mammalian expression system at 1 uM by Kinomescan method relative to control.
A short description of data set [18]: Protein binding in human plasma assessed as unbound fraction at 2 uM by rapid equilibrium dialysis method. The format is ADME, cell-free. (Equilibrium dialysis compares concentrations on both sides of a semipermeable membrane.)
The target of data set [19] is Ankyrin repeat and protein kinase domain-containing protein 1 (Homo sapiens) (UniProt Q8NFD2). Put plainly: Inhibition of wild-type human partial length ANKK1 (M1 to A305 residues) expressed in mammalian expression system at 1 uM by Kinomescan method relative to control.
Data set [20] deals with Homeodomain-interacting protein kinase 3 (Homo sapiens) (UniProt Q9H422). Briefly: Inhibition of wild-type human partial length HIPK3 (M153 to N562 residues) expressed in mammalian expression system at 1 uM by Kinomescan method relative to control.
The target of data set [21] is Mitogen-activated protein kinase 1 (Homo sapiens) (UniProt P28482). Briefly: Inhibition of wild-type human full length ERK2 (M1 to S360 residues) expressed in bacterial expression system at 1 uM by Kinomescan method relative to control.
For data set [22], the target named is Glycogen synthase kinase-3 beta (Homo sapiens) (UniProt P49841). Put plainly: Inhibition of wild-type human full length GSK3B (M1 to T433 residues) expressed in mammalian expression system at 1 uM by Kinomescan method relative to control.
Data set [23] has as its system Receptor-type tyrosine-protein kinase FLT3 (Homo sapiens), P36888 [D835H]. Put plainly: Inhibition of human partial length FLT3 D835H mutant (V592 to Y969 residues) expressed in bacterial expression system at 1 uM by Kinomescan method relative to control.
Data set [24] deals with 3-phosphoinositide-dependent protein kinase 1 (Homo sapiens) (UniProt O15530). Briefly: Inhibition of wild-type human full length PDPK1 (M1 to Q556 residues) expressed in bacterial expression system at 1 uM by Kinomescan method relative to control.
For data set [25], the target named is Cyclin-dependent kinase-like 5 (Homo sapiens) (UniProt O76039). Briefly: Inhibition of wild-type human partial length CDKL5 (M1 to S337 residues) expressed in mammalian expression system at 1 uM by Kinomescan method relative to control.
Data set [26] concerns the target Epidermal growth factor receptor (Homo sapiens) (UniProt P00533). Briefly: Inhibition of wild-type human partial length EGFR (R669 to V1011 residues) expressed in bacterial expression system at 1 uM by Kinomescan method relative to control.
In data set [27] the target is Calcium/calmodulin-dependent protein kinase type II subunit gamma (Homo sapiens) (UniProt Q13555). Briefly: Inhibition of wild-type human partial length CAMK2G (R9 to A303 residues) expressed in bacterial expression system at 1 uM by Kinomescan method relative to control.

Chain of Interferon-induced, double-stranded RNA-activated protein kinase (Homo sapiens) (P19525 whole entry, the tested form may be a part): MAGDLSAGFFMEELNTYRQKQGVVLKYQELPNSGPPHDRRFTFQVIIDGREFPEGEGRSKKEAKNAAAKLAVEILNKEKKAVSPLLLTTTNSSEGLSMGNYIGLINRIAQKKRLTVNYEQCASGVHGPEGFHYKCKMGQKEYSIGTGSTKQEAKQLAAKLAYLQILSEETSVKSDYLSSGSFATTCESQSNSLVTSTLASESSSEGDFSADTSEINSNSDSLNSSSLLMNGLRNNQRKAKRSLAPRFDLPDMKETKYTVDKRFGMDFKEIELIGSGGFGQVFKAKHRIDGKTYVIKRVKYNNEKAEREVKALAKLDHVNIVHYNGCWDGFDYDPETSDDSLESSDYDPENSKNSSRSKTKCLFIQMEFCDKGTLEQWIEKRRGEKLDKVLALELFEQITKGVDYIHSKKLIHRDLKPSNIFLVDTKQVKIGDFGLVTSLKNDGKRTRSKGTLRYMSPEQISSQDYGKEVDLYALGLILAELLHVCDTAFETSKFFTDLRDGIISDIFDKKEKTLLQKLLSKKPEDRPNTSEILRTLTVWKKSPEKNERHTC
Chain of 3-phosphoinositide-dependent protein kinase 1 (Homo sapiens) (O15530 whole entry, the tested form may be a part): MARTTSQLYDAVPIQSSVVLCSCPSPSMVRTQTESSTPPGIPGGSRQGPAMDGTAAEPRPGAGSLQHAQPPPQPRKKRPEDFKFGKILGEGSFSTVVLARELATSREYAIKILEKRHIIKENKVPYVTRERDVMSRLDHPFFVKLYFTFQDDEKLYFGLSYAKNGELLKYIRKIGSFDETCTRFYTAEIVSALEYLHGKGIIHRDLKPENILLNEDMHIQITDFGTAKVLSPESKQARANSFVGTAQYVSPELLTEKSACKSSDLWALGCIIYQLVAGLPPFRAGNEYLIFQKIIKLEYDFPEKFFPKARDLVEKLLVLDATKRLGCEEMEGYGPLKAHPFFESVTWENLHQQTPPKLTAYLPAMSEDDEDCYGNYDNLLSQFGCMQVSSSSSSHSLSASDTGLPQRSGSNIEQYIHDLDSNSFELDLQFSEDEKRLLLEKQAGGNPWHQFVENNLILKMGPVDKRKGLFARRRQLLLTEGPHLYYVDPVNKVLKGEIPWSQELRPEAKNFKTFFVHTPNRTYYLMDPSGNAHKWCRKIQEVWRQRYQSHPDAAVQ
Chain of Death-associated protein kinase 3 (Homo sapiens) (O43293 whole entry, looked up, the tested form may be a part): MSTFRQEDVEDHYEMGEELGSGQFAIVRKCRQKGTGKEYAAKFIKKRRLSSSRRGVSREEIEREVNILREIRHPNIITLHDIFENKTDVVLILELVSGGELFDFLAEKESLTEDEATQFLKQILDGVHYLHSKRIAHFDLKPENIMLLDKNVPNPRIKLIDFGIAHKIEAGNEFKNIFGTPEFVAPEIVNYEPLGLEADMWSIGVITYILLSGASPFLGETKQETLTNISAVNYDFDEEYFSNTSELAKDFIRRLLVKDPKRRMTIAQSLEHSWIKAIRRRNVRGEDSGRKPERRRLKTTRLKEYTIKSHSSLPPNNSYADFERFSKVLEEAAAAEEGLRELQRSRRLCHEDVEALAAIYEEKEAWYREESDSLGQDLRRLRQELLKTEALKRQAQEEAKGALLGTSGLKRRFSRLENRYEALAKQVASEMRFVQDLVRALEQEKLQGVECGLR
Chain of Serine/threonine-protein kinase PAK 1 (Homo sapiens) (Q13153 whole entry, the tested form may be a part): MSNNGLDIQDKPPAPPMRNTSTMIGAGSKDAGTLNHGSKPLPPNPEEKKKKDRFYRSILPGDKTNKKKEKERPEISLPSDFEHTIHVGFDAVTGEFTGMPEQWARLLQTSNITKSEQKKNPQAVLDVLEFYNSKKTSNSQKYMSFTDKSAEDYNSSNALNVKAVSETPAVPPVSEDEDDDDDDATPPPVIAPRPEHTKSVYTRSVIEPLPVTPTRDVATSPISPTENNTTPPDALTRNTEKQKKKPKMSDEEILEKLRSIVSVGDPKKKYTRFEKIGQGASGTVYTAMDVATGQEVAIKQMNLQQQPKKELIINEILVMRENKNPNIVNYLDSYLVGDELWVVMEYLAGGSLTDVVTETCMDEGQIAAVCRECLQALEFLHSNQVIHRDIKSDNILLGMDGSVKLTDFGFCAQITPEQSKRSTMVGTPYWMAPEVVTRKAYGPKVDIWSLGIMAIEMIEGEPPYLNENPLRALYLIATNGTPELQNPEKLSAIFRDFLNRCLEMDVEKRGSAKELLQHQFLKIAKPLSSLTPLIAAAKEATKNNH
Chain of Calcium/calmodulin-dependent protein kinase type II subunit delta (Homo sapiens) (Q13557 whole entry, the tested form may be a part): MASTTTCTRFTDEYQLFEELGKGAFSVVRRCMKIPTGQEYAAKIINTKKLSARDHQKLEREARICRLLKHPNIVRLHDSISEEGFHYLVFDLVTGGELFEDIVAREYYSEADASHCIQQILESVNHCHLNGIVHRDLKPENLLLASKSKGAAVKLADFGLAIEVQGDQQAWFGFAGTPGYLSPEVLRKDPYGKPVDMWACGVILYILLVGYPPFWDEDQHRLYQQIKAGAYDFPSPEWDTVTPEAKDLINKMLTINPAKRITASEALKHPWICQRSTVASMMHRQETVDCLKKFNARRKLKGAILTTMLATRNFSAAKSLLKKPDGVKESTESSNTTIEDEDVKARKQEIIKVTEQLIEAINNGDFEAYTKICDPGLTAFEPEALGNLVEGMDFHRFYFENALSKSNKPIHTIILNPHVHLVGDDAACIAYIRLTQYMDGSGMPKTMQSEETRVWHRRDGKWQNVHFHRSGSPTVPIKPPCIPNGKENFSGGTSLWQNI
Chain of Myotonin-protein kinase (Homo sapiens) (Q09013 whole entry, the tested form may be a part, canonical isoform): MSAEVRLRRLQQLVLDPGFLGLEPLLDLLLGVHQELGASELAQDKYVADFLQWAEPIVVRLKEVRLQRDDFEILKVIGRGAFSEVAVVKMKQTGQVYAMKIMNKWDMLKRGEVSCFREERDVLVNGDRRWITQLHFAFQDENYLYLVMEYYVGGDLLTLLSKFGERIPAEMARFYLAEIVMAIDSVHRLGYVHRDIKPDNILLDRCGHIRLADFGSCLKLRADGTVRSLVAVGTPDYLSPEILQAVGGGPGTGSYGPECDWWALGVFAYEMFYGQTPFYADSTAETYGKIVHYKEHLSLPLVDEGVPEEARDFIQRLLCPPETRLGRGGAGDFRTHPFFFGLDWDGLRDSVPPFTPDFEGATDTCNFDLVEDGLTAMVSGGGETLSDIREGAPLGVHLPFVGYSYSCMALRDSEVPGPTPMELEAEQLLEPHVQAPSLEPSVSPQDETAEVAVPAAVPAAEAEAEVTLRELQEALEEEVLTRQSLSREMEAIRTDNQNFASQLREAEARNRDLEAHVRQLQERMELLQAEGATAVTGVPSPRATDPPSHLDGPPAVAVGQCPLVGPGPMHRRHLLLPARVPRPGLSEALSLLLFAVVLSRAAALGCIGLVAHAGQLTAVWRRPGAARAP
Chain of Tyrosine-protein kinase receptor TYRO3 (Homo sapiens) (Q06418 whole entry, the tested form may be a part): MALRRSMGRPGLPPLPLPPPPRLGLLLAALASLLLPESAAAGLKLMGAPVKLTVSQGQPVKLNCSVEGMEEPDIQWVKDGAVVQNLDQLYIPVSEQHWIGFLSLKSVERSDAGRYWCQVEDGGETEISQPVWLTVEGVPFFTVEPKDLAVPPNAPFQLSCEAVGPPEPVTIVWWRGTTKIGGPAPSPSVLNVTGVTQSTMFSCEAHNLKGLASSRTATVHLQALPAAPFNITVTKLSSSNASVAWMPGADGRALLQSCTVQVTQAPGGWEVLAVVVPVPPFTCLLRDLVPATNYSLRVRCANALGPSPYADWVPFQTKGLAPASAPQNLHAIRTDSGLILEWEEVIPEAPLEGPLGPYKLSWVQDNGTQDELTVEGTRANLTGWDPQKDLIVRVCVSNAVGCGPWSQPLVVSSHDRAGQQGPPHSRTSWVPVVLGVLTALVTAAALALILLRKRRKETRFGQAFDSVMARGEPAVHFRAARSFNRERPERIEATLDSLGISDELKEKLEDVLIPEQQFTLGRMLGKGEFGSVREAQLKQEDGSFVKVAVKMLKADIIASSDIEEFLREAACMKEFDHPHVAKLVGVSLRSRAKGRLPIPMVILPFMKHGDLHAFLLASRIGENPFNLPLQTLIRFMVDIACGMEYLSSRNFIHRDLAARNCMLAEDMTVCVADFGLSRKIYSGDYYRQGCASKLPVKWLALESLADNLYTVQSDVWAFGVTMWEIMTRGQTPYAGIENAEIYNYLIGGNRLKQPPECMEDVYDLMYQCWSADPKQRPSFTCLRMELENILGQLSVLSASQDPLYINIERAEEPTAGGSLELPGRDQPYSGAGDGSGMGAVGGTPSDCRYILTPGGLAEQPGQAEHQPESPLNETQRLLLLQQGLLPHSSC
Chain of Glycogen synthase kinase-3 beta (Homo sapiens) (P49841 whole entry, looked up, the tested form may be a part): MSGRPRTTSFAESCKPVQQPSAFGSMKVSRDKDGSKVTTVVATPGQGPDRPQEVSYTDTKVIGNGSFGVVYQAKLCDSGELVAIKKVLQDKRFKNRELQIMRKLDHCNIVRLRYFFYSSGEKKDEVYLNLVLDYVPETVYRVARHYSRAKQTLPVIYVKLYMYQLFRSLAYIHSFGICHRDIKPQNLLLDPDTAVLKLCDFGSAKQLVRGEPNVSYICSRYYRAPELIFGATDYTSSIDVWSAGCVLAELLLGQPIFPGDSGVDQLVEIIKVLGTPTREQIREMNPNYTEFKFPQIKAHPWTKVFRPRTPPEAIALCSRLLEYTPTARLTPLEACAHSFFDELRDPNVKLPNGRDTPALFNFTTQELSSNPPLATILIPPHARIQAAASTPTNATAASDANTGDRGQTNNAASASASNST
Chain of Mitogen-activated protein kinase 1 (Homo sapiens) (P28482 whole entry, the tested form may be a part): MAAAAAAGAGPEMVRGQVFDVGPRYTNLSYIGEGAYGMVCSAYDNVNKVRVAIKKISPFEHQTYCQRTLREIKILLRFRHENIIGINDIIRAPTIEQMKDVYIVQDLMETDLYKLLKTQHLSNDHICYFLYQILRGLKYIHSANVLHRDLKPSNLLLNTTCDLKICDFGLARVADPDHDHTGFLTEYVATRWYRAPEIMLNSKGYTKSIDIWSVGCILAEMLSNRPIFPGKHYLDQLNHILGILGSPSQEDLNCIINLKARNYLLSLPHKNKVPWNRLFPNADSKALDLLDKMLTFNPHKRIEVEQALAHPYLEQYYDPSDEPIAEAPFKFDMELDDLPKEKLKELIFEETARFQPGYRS

A word on the inhibition: it is the drop in the measured response relative to a control, in per cent. In the case of `O=C(Nc1cccc([C@H]2CCCN(c3ncnc4[nH]ccc34)C2)c1)Nc1ccccc1N1CCCC1`, the inhibition is 71% in [1]; 74% in data set [2]; 45% in data set [3]; 87% in [4]; 100% in data set [5]; 2.6% in [6]. Also, the inhibition in data set [7] came out at 100%; in data set [8], 4.1%; in data set [9] it was 90%; in data set [10], 50%.
`O=C(Nc1cccc([C@@H]2CN(c3ncnc4[nH]ccc34)CCN2CCO)c1)Nc1c(F)cccc1N1CCCC1`: the inhibition in data set [11] came out at 3.5%; in [12], 100%; in data set [13], 79%; in [14] it was 26%; in data set [15], 100%; in data set [16], 95%. Further, the inhibition turned out to be 99% in [17]; 100% in data set [19]; 86% in data set [20]; 90% in [21]; 83% in [22]; 9.6% in data set [23]. Further, the inhibition in [24] came out at 34%; in data set [25], 100%; in [26], 100%; in data set [27] it was 99%. For the same molecule, the Fu in data set [18] turned out to be 1%.
